Where “and” joins values, the source holds several entries; their conditions need not be identical. Equal entries are not always repeated.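 Results reflect a 48-hour exposure of cells in 96-well plates to compound at five concentrations. Here, GI50 denotes the concentration required for 50% inhibition of growth. TGI is the concentration that stops growth completely.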
What was measured:
Assay in all cases: NCI anticancer screen, dose series, 48 h
A549 NSCLC = tested on: A549 NSCLC
ACHN renal = tested on: ACHN renal
HCT-15 colon = tested on: HCT-15 colon
LOX IMVI melanoma = tested on: LOX IMVI melanoma
OVCAR-4 ovarian = tested on: OVCAR-4 ovarian
RPMI-8226 leukemia = tested on: RPMI-8226 leukemia
RXF 393 renal = tested on: RXF 393 renal
SK-MEL-5 melanoma = tested on: SK-MEL-5 melanoma
SW-620 colon = tested on: SW-620 colon
TK-10 renal = tested on: TK-10 renal

SMILES | TGI (A549 NSCLC) | TGI (ACHN renal) | TGI (HCT-15 colon) [µM] | TGI (LOX IMVI melanoma) [µM] | TGI (OVCAR-4 ovarian) | TGI (RPMI-8226 leukemia) [µM] | TGI (RXF 393 renal) [µM] | TGI (SK-MEL-5 melanoma) | TGI (SW-620 colon) [µM] | TGI (TK-10 renal) | GI50 (A549 NSCLC) [µM] | GI50 (ACHN renal) [µM] | GI50 (HCT-15 colon) [µM] | GI50 (LOX IMVI melanoma) [µM] | GI50 (OVCAR-4 ovarian) [µM] | GI50 (RPMI-8226 leukemia) [µM] | GI50 (RXF 393 renal) [µM] | GI50 (SK-MEL-5 melanoma) | GI50 (SW-620 colon) [µM] | GI50 (TK-10 renal) [µM]
N/C(CC(=O)NOC(=O)c1ccccc1)=N/OC(=O)c1ccccc1 | > 100 µM | > 100 µM | > 100 | 38.5 | 75 µM | > 100 | 60.6 | > 100 µM | > 100 | > 100 µM | – | – | – | – | – | – | – | – | – | –
CCN(CC)CCNc1ccc([N+](=O)[O-])c2nc3ccc(OC)cc3c(N)c12 | 2.79 µM | 2.89 µM | 2.68 | 0.344 | 1.91 µM | 0.704 | 2.58 | 2.22 µM | 0.772 | 2.93 µM | – | – | – | – | – | – | – | – | – | –
O=C(N/N=C/c1ccc(N(CCCl)CCCl)cc1)c1ccc(C(=O)N/N=C/c2ccc(N(CCCl)CCCl)cc2)cc1 | > 100 µM | > 100 µM | > 100 | > 100 | > 100 µM | 15.1 | > 100 | > 100 µM | > 100 | > 100 µM | 3.08 | 6.8 | > 100 | 1.4 | 47.9 | 1.33 | 7.63 | 18.1 µM | 19.5 | > 100
C=C(CN1CCN(c2ccc(F)c(Cl)c2)CC1)c1ccc(C(=O)Nc2ccccc2N)cc1 | 24.5 µM | > 100 µM | > 100 | 12.5 | > 100 µM | 5.1 | 39.2 | 22.3 µM | > 100 | 97.5 µM | 3.81 | 6.43 | 5.38 | 3.47 | > 100 | 1.46 | 3.84 | 5.62 µM | 5.37 | 18.2
CN1CCN(c2nc3cc(F)ccc3n3cccc23)CC1 | > 100 µM | > 100 µM | > 100 | 31.4 | > 100 µM | > 100 | > 100 | 38 µM | > 100 | > 100 µM | – | – | – | – | – | – | – | – | – | –
Cc1c2ccccc2c(C)n2c1nc1cc(Cl)c(Cl)cc12 | > 100 µM | > 100 µM | > 100 | > 100 | > 100 µM | > 100 | > 100 | > 100 µM | > 100 | > 100 µM | > 100 | 26 | 93.5 | 25.2 | 22.4 | 18.4 | > 100 | 25.7 µM | 74.1 | > 100
COC(=O)Nc1nc2ccc(C(=O)c3cccs3)cc2[nH]1 | 55.8 µM and > 100 µM | 87.5 µM and > 100 µM | – | > 100 | 70.9 µM and > 100 µM | – | 1.36 | 6.43 µM and 2.06 µM | > 100 | 60.4 µM and > 100 µM | 0.239 | 1.24 | 0.106 | 0.536 | – | 0.407 | – | 0.0215 µM and 0.0666 µM | 0.0672 | –
Cc1cn2cc(-c3ccc4c(c3)CC(=O)N4)nc2s1 | > 100 µM | > 100 µM | > 100 | > 100 | > 100 µM | > 100 | > 100 | > 100 µM | > 100 | > 100 µM | > 100 | 49.7 | 67 | 20.5 | > 100 | 35.9 | > 100 | 94 µM | 34 | > 100
CNc1nc(-c2ccc3c(N)n[nH]c3c2)cc(N2C[C@@H](C(=O)NC3CCCCC3)CC[C@H]2C)n1 | 20.8 µM | 19.9 µM | 19.4 | 19.4 | 23.1 µM | 18.3 | 8.78 | 13.9 µM | 23.4 | 9.46 µM | 3.37 | 2.81 | 4.33 | 3.8 | 3.6 | 2.93 | 1.31 | 2.84 µM | 6.85 | 0.366
CC1/C(=N/O)CC(c2ccccc2)N(N=O)C1c1ccccc1 (stereo not given) | > 100 µM | > 100 µM | > 100 | > 100 | > 100 µM | > 100 | > 100 | > 100 µM | > 100 | > 100 µM | – | – | – | – | – | – | – | – | – | –
CN(C)Cc1cc(C(C)(C)C)cc(CN(C)C)c1O | > 100 µM | > 100 µM | > 100 | > 100 | > 100 µM | > 100 | > 100 | > 100 µM | > 100 | > 100 µM | – | – | – | – | – | – | – | – | – | –
Oc1ccc(O)c(-n2cccn2)c1-n1cccn1 | > 100 µM | > 100 µM | > 100 | > 100 | > 100 µM | > 100 | > 100 | > 100 µM | > 100 | > 100 µM | – | – | – | – | – | – | – | – | – | –
COC1CC(n2cc(F)c(N)nc2=O)OC1CO (stereo not given) | > 100 µM | > 100 µM | > 100 | > 100 | > 100 µM | > 100 | > 100 | > 100 µM | > 100 | > 100 µM | – | – | – | – | – | – | – | – | – | –
CC[C@@H](C(=O)[C@@H](C)[C@@H](O)[C@H](C)[C@@H]1O[C@@H]([C@@H](CC)C(=O)O)CC[C@@H]1C)[C@H]1O[C@]2(C=C[C@@H](O)[C@]3(CC[C@@](C)([C@H]4CC[C@](O)(CC)[C@H](C)O4)O3)O2)[C@H](C)C[C@@H]1C | 14.1 µM | 49.2 µM | > 100 | 12.9 | 34 µM | 3.75 | 2.64 | 1.61 µM | 12.6 | 17.8 µM | 0.421 | 1.39 | 0.912 | 0.596 | 1.12 | 0.277 | 0.114 | 0.401 µM | 1.56 | 0.942
Cc1nc2sc(C(=O)Nc3ccccc3)c(N)c2cc1C(=O)c1ccccc1 | > 50 µM | > 50 µM | > 50 | > 50 | > 50 µM | > 50 | 34.3 | 8.13 µM | > 50 | > 50 µM | 0.853 | 4.52 | 2.19 | 3 | 34.7 | 1.86 | 1.83 | 1.97 µM | 2.29 | 3.09
